pIC50: −log10 of the molar value.
Target: T1, KCNT1 (KNa1.1, Slack) (Homo sapiens, UniProt Q5JUK3)
T1 construct: expressed in transfected cells; host or cells: HEK-TREX (tetracycline-inducible HEK cell line)
T1 sequence (Q5JUK3 1-1230): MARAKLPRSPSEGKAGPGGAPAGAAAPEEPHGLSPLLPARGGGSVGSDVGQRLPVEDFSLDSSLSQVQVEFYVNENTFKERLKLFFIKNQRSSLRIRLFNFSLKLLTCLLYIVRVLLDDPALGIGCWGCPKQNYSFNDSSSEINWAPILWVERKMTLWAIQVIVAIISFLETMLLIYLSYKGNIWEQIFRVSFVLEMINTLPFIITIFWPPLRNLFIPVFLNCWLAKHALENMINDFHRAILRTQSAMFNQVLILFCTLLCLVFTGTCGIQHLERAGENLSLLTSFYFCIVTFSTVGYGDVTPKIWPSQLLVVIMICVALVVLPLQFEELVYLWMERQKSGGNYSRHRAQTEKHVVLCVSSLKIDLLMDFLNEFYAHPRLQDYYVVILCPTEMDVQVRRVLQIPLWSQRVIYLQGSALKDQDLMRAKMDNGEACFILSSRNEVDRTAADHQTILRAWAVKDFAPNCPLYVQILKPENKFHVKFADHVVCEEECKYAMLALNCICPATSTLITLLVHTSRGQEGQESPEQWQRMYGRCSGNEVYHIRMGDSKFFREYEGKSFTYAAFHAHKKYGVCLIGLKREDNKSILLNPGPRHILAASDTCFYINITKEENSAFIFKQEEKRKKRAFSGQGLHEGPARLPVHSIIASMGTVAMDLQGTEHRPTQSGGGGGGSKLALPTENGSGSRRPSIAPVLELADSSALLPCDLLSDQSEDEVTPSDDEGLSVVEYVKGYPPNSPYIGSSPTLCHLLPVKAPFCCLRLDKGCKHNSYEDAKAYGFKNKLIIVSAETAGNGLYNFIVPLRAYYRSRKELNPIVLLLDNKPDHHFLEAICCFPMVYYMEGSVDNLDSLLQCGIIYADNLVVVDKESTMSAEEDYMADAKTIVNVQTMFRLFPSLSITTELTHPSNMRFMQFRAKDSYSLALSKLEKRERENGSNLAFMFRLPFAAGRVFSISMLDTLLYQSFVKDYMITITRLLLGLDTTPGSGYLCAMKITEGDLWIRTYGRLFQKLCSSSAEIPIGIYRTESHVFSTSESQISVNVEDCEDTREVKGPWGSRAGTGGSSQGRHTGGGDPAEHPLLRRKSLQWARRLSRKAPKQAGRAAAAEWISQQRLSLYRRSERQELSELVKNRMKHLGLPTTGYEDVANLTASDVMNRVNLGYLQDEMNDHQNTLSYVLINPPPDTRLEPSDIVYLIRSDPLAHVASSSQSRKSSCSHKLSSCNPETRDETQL
Assay: KCNT1 patch clamp assay (SyncroPatch 384PE automated patch clamp)
Type: cell-based
Settings: tetracycline inducible HEK-TREX cell line; perforated patch; step from −80 mV to 0 mV; room temperature; read-out: KCNT1-WT IC50
Method in brief: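 Tetracycline-inducible HEK-TREX cells; perforated-patch (10 μM escin) population recordings at room temperature, holding −80 mV with 100 ms step to 0 mV.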

Structure (SMILES)	pIC50
Cc1nn(CC(F)F)cc1C(=O)N[C@@H](C)c1nc(-c2cccc(F)c2)no1 [Compound 163]	4.70 to 6.00
Cc1nn(C(C)C)cc1C(=O)N[C@@H](C)c1nc(-c2ccc(F)cc2)no1 [Compound 90]	4.70 to 6.00
Cn1nc(C(F)(F)F)cc1C(=O)NC1(c2nc(-c3cccc(F)c3)no2)CCOC1 (stereo not drawn) [Compound 148]	4.70 to 6.00
CC[C@@H](NC(=O)c1cc(C(F)(F)F)nn1C)c1nc(-c2ccnc(C3CC3)c2)no1 [Compound 266, N-[(1R)-1-[3-(2-cyclopropyl-4-pyridyl)-1,2,4-oxadiazol-5-yl]propyl]-2-methyl-5-(trifluoromethyl)pyrazole-3-carboxamide]	≥ 6.00
C[C@H](NC(=O)OC(C)(C)C)c1nc(-c2ccnc(C(F)(F)F)c2)no1 [Compound 295, tert-butyl (S)-(1-(3-(2-(trifluoromethyl)pyridin-4-yl)-1,2,4-oxadiazol-5-yl)ethyl)carbamate]	≥ 6.00
C[C@H](NC(=O)OC(C)(C)C)c1nc(-c2ccnc(C3CC3)c2)no1 [Compound 288, tert-butyl (S)-(1-(3-(2-cyclopropylpyridin-4-yl)-1,2,4-oxadiazol-5-yl)ethyl)carbamate]	≥ 6.00

Reference: patent publication US20220259193A1, “KCNT1 INHIBITORS AND METHODS OF USE” (Praxis Precision Medicines, Inc., priority 2019, published 2022)
